# According to US8629251B2, “Specific detection and quantification of phosphatidic acid using an Arabidopsis trigalactosyldiacylglycerol-4 (TGD4) protein” (Board of Trustees of Michigan State University, priority 2008, dated 2014):
# Assays:
# Assay type in all cases: binding
# [1] = biological target: T1, Arabidopsis TGD2, DsRed-TGD2C WT fusion protein, residues 119-381, SEQ ID NO:107 (Arabidopsis thaliana, UniProt Q9LTR2); test: Protein-lipid overlay assay, DsRed-TGD2C WT; conditions: commercial phospholipid membrane strip
# T1 sequence (Q9LTR2 121-381): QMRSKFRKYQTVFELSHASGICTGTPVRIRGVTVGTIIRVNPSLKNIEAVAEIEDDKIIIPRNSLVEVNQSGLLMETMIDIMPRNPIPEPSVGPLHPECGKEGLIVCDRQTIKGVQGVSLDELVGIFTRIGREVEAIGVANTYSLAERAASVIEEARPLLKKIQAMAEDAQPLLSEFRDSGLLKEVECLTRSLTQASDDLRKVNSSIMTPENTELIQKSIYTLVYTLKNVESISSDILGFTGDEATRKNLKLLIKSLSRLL
# Description: Membrane lipid strips were purchased from Echelon Biosciences (Salt Lake City, Utah). The strips were first blocked with 3% bovine serum albumin in TBST (10 mM Tris-HCl, pH 8.0, 150 mM NaCl, and 0.25% Tween-20) for two hours and incubated in 0.5 μg/mL DsRed-TGD2 fusion protein solution in the blocking buffer at 4° C. overnight. The strips were washed 10 min for 3 times with TBST the next day and soaked in 3% bovine serum albumin in TBST with a Penta-His mouse monoclonal antibody (Sigma-Aldrich, St. Louis, Mo.) at 1:2,000 dilution at 4° C. overnight. The strips were washed twice with TBST and soaked in 3% bovine serum albumin in TBST with horseradish peroxidase-conjugated anti mouse antibody (Bio-Rad, Hercules, Calif.) at 1:20,000 dilution for an hour at room temperature. Following washing with TBST for 1 hour, the protein was detected by using the chemiluminescent detection system (Sigma-Aldrich).
# [2] = biological target: T2, Arabidopsis TGD2, DsRed-TGD2C T9 (residues 221-250, SEQ ID NO:40) (Arabidopsis thaliana, UniProt Q9LTR2); test: Liposome-association assay, TGD2C T9 (221-250)
# T2 sequence (Q9LTR2 221-250): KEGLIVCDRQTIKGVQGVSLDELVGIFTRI
# Description: (§1) The liposome association assay was performed as previously reported. (31). Briefly, lipids (dioleoyl-phosphatidylcholine, DOPC or dioleoyl-PA, DOPA) were incubated in TBS (50 mM Tris-HCl, pH 7; 0.1 M NaCl) at 37° C. for an hour followed by vigorous vortexing for 5 min. The liposomes were precipitated at 20,000 g and washed twice with ice-cold TBS.
# (§2) Liposomes (200 μg) were mixed with purified DsRed-TGD2 fusion protein and TBS to make a final 100 μL solution. The mixture was incubated at 30° C. for 30 min and washed twice with ice-cold TBS by centrifugation at 20,000 g at 4° C. The liposome pellet mixed with sample buffer was analyzed by SDS-PAGE (28). Immuno-detection of the His-tagged protein was accomplished using the above mentioned Penta-His antibody at 1:15,000 and the anti mouse antibody at 1:75,000 dilution.
# (§3) The protein band was visualized by chemiluminescent detection kit from Sigma. The autoradiography film was scanned, distinct protein bands were quantified using computer software Multi Gauge V3.0 (Fujifilm USA, Valhalla, N.Y.) and resulted data were plotted and analyzed by OriginPro8 (Origin lab corporation, Northampton, Mass.).
# [3] = test system: DsRed protein (Discosoma sp. red fluorescent protein); test: Liposome-association assay, DsRed control; conditions: FIG. 3B
# Description: as §1, §2, §3
# [4] = biological target: T3, Arabidopsis TGD4, DsRED-TGD4-His, full-length TGD4 1-479 (SEQ ID NO: 132) (Arabidopsis thaliana, UniProt Q9M903); test: Liposome association assay, DsRED-TGD4-His; conditions: pH range of 6.4-7.8, FIG. 18E
# T3 sequence (Q9M903 1-479): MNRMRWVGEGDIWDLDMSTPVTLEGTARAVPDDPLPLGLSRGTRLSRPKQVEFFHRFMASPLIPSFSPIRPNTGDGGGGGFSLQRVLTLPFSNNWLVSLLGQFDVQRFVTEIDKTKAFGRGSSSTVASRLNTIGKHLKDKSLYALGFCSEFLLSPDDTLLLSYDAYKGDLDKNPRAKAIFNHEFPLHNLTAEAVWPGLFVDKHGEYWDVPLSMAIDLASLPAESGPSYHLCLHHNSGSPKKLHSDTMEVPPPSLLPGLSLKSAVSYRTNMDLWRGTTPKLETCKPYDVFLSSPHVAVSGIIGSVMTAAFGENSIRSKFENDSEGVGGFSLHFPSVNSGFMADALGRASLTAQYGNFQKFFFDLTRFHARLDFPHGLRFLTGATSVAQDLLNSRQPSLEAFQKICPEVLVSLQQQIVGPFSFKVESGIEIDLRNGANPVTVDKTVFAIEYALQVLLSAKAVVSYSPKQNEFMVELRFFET
# Description: Liposome Association Assay:
# The liposome association assay was adapted from (Awai et al., 2006, Lu and Benning, 2009) with minor modifications. Dioleoyl-PtdCho and PtdOH with different acyl chain lengths and desaturation levels were used for making liposomes. In other liposomes 1-palmitoyl-2-(12-((7-nitro-2-1,3-benzoxadiazol-4-yl)amino)dodecanoyl)-sn-glycero-3-phosphate (NBD-PtdOH; Avanti, Alabaster, Ala.) was used. The lipids were mixed at indicated ratios to give a total lipid amount of 250 μg. The lipids were dried under a stream of nitrogen, resuspended in 0.5 ml TBS buffer with 0.2 M choline chloride and hydrated at 37° C. for 1 hour followed by vigorous vortexing for 2 minutes. The resulting multi-lamellar vesicles were centrifuged at 13,000×g for 10 minutes and then washed once with TBS buffer containing 0.2 M choline chloride. The liposomes were resuspended into 100 μl TBS buffer with 0.2 M choline chloride and incubated with 2 μg purified DsRED-TGD4-His protein and its derivatives. The protein liposome mixture was incubated on ice for 30 minutes followed by centrifugation at 13,000×g for 10 minutes and two washes with 500 μl TBS containing 0.2 M choline chloride. The resulting protein-liposome pellet was resuspended in 20 μl 2× Laemmli buffer (Laemmli, 1970) and processed by SDS-PAGE (Shapiro and Maizel, 1969).
smiles,measurement,setting,value
"CCCCCCCC/C=C\CCCCCCCC(=O)OC[C@H](COP(=O)(O)O)OC(=O)CCCCCCC/C=C\CCCCCCCC [PA, phosphatidic acid]",binding to lipids on membrane strip,[1],shows specificity for PA over other lipids
same,PA binding,[2],no interaction to PA was detected
same,binding to PC or PA,[3],does not display binding
same,effect of pH on PtdOH binding,[4],not affected
